SMILES strings stand for the structures. Structures can show the parent of a compound that is named as a salt.

The target in this experiment is T1, recombinant guanylate cyclase reporter cell line (Rattus norvegicus, UniProt P19686+P20595).
T1 construct: expressed in transfected cells
T1 sequence (P20595 1-619): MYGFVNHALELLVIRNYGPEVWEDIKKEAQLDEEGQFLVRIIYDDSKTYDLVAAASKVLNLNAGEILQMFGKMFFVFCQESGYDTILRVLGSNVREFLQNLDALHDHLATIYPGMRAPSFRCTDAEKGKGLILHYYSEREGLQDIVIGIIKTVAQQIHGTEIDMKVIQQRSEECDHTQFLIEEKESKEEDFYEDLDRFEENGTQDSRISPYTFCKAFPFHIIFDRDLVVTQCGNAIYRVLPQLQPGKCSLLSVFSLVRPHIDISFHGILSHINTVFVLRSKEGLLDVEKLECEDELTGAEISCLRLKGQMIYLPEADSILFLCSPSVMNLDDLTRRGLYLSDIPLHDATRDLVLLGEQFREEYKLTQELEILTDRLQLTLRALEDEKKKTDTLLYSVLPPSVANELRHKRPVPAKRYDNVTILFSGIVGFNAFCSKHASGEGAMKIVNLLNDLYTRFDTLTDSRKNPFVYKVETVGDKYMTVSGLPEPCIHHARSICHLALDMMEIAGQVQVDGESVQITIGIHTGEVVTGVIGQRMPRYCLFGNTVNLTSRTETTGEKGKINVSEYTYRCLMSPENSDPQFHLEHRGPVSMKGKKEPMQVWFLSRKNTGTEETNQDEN
T1 sequence (P19686 1-690): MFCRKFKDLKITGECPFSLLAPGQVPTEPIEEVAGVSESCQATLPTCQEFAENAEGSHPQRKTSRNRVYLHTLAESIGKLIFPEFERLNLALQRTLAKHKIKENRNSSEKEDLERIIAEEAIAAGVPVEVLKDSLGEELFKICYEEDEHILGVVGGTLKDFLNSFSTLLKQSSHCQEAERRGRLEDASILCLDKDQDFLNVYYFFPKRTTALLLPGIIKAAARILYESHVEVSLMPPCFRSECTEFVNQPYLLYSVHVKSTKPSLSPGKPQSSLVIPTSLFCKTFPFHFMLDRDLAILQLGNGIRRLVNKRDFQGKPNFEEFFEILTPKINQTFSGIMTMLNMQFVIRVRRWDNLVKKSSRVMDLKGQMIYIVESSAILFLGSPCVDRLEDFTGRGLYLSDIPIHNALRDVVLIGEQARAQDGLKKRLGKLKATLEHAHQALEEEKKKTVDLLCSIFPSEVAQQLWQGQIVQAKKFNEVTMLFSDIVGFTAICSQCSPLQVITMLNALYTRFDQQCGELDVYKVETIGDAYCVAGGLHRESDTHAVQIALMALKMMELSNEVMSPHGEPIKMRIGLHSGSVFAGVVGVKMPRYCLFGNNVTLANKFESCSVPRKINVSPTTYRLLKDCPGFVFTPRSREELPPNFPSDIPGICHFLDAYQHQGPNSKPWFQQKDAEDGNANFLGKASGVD
The experiment in a line: B-2. Action on recombinant guanylate cyclase reporter cell line. The experiment is classed as cell-based. The settings on record: MEC = minimal effective concentration; in some cases mean values from individual determinations. The procedure, abridged: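 Each compound is applied to a cell line engineered with a reporter for recombinant guanylate cyclase. The minimal effective concentration is then noted, in part as a mean across separate determinations.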
Turning to `Cc1cc(OCc2c(F)cccc2F)c2nc(C)c(C(=O)NC3CCC3N)n2c1` (single isomer, unassigned; enantiomer a) [Example 328, ent-N-(2-aminocyclobutyl)-8-[(2,6-difluorobenzyl)oxy]-2,6-dimethylimidazo[1,2-a]pyridine-3-carboxamide (Enantiomer A)], the MEC was found to be 3.00 µM.
Consider `COc1cccc(C(N)CNC(=O)c2c(C)nc3c(OCc4c(F)cccc4F)cc(C)cn23)c1` (racemic) [Example 378, rac-N-[2-amino-2-(3-methoxyphenyl)ethyl]-8-[(2,6-difluorobenzyl)oxy]-2,6-dimethylimidazo[1,2-a]pyridine-3-carboxamide], for which the MEC was 1.00 µM.
Regarding `[2H]C([2H])(Oc1cccn2c(C(=O)NC(CN)c3ccc(F)c(F)c3)c(C)nc12)c1c(F)cccc1F` (stereo not drawn) [Example 97, ent-N-[2-Amino-1-(3,4-difluorophenyl)ethyl]-8-{[(2,6-difluorophenyl) (^2H2)methyl]oxy}-2-methylimidazo[1,2-a]pyridine-3-carboxamide], the MEC turned out to be 0.10 µM.
Turning to `Cc1nc2c(OCc3c(F)cccc3F)cccn2c1C(=O)NC(CN)COc1ccccc1` (racemic) [Example 59, rac-N-(1-amino-3-phenoxypropan-2-yl)-8-[(2,6-difluorobenzyl)oxy]-2-methylimidazo[1,2-a]-pyridine-3-carboxamide dihydrochloride], the MEC is 3.00 µM.
As for `Cc1cc(OCc2c(F)cccc2F)c2nc(C)c(C(=O)NC3CNCC3F)n2c1` (racemic) [Example 347, rac-8-[(2,6-Difluorobenzyl)oxy]-N-(4-fluoropyrrolidin-3-yl)-2,6-dimethylimidazo[1,2-a]pyridine-3-carboxamide], the MEC is 1.00 µM.
Take `Cc1cc(OCc2c(F)cccc2F)c2nc(C)c(C(=O)NCC(C)(N)Cc3nc4ccccc4s3)n2c1` (racemic) [Example 310, rac-N-[2-amino-3-(1,3-benzothiazol-2-yl)-2-methylpropyl]-8-[(2,6-difluorobenzyl)oxy]-2,6-dimethylimidazo[1,2-a]pyridine-3-carboxamide]: the MEC turned out to be 0.30 µM.
Regarding `Cc1cc(OCc2c(F)cccc2F)c2nc(C)c(C(=O)NCC(C)(N)CCOCc3ccccc3)n2c1` (racemic) [Example 262, rac-N-[2-Amino-4-(benzyloxy)-2-methylbutyl]-8-[(2,6-difluorobenzyl)oxy]-2,6-dimethylimidazo-[1,2-a]pyridine-3-carboxamide], the MEC worked out at 0.10 µM.
For `Cc1cc(OC(C)c2c(F)cccc2F)c2nc(C)c(C(=O)NCC(C)(C)N)n2c1` (single isomer, unassigned; enantiomer b) [Example 256, ent-N-(2-Amino-2-methylpropyl)-8-[1-(2,6-difluorophenyl)ethoxy]-2,6-dimethylimidazo[1,2-a]-pyridine-3-carboxamide (Enantiomer B)], the MEC was found to be 3.00 µM.
Turning to `Cc1nc2c(OCc3c(F)cccc3F)cccn2c1C(=O)NCCC(C)(C)N` [Example 117, N-(3-amino-3-methylbutyl)-8-[(2,6-difluorobenzyl)oxy]-2-methylimidazo[1,2-a]-pyridine-3-carboxamide], the MEC amounted to 1.00 µM.
The result for `Cc1cc(OCc2c(F)cccc2F)c2nc(C)c(C(=O)NC3CCC3(C)N)n2c1` (single isomer, unassigned; enantiomer b) [Example 333, ent-N-[2-amino-2-methylcyclobutyl]-8-[(2,6-difluorobenzyl)oxy]-2,6-dimethylimidazo[1,2-a]pyridine-3-carboxamide (Enantiomer B)] reads 1.00 µM; that for `Cc1nc2c(OCc3c(F)cccc3F)cc(Cl)cn2c1C(=O)NCC1(N)CC1` [Example 39, N-[(1-aminocyclopropyl)methyl]-6-chloro-8-[(2,6-difluorobenzyl)oxy]-2-methylimidazo[1,2-a]pyridine-3-carboxamide], 0.10 µM.
As for `Cc1cc(OCc2c(F)cccc2F)c2nc(C)c(C(=O)NC[C@@H]3CCCCN3)n2c1` [Example 172, 8-[(2,6-Difluorobenzyl)oxy]-2,6-dimethyl-N-[(2S)-piperidin-2-ylmethyl]imidazo[1,2-a]pyridine-3-carboxamide], the MEC came to 0.30 µM.
`Cc1nc2c(OCc3c(F)cccc3F)cccn2c1C(=O)NC(CN)c1ccccc1` (racemic) [Example 16, rac-N-(2-Amino-1-phenylethyl)-8-[(2,6-difluorobenzyl)oxy]-2-methylimidazo[1,2-a]pyridine-3-carboxamide Dihydrochloride]: the MEC was determined as 0.30 µM.
Regarding `CCOCC(CN)NC(=O)c1c(C)nc2c(OCc3c(F)cccc3F)cc(Cl)cn12` (single isomer, unassigned) [Example 57, ent-N-(1-amino-3-ethoxypropan-2-yl)-6-chloro-8-[(2,6-difluorobenzyl)oxy]-2-methylimidazo[1,2-a]-pyridine-3-carboxamide], the MEC is 0.30 µM.
Take `Cc1nc2c(OCc3c(F)cccc3F)cccn2c1C(=O)NC1CN2CCC1CC2` (stereo not drawn) [Example 92, N-(1-azabicyclo[2.2.2]oct-3-yl)-8-[(2,6-difluorobenzyl)oxy]-2-methylimidazo[1,2-a]-pyridine-3-carboxamide]: the MEC was determined as 0.30 µM.
For the compound `Cc1cc(OCc2c(F)cccc2F)c2nc(C)c(C(=O)NCC(C)(N)CF)n2c1` (single isomer, unassigned; enantiomer a) [Example 283, ent-N-(2-amino-3-fluoro-2-methylpropyl)-8-[(2,6-difluorobenzyl)oxy]-2,6-dimethylimidazo[1,2-a]pyridine-3-carboxamide (Enantiomer A)], the MEC amounted to 0.3 µM.
Regarding `Cc1cc(OCc2c(F)cccc2F)c2nc(C)c(C(=O)NC(CN)c3cccc(OC(F)F)c3)n2c1` (racemic) [Example 392, rac-N-{2-amino-1-[3-(difluoromethoxy)phenyl]ethyl}-8-[(2,6-difluorobenzyl)oxy]-2,6-dimethylimidazo[1,2-a]pyridine-3-carboxamide], the MEC worked out at 1.00 µM.
In the case of `Cc1nc2c(OCc3c(F)cccc3F)cccn2c1C(=O)NC1CCNc2ccc(F)cc21` (single isomer, unassigned; ent-8) [Example 105, ent-8-[(2,6-difluorobenzyl)oxy]-N-(6-fluoro-1,2,3,4-tetrahydroquinolin-4-yl)-2-methylimidazo[1,2-a] pyridine-3-carboxamide], the MEC was 0.30 µM.
The result for `Cc1cc(OCc2c(F)cccc2F)c2nc(C)c(C(=O)NCC3CN(Cc4ccccc4)CCO3)n2c1` (racemic) [Example 344, rac-N-[(4-benzylmorpholin-2-yl)methyl]-8-[(2,6-difluorobenzyl)oxy]-2,6-dimethylimidazo[1,2-a]pyridine-3-carboxamide] reads 1.00 µM; that for `Cc1cc(OCc2c(F)cccc2F)c2nc(C)c(C(=O)NCC(C)(N)CC(C)C)n2c1` (single isomer, unassigned) [Example 219, ent-N-(2-Amino-2,4-dimethylpentyl)-8-[(2,6-difluorobenzyl)oxy]-2,6-dimethylimidazo[1,2-a]-pyridine-3-carboxamide], 0.30 µM.
Take `Cc1nc2c(OCc3c(F)cccc3F)cccn2c1C(=O)NCC1CCc2ccccc2N1` (racemic) [Example 250, rac-8-[(2,6-Difluorobenzyl)oxy]-2-methyl-N-(1,2,3,4-tetrahydroquinolin-2-ylmethyl)imidazo[1,2-a]pyridine-3-carboxamide]: the MEC was 1.00 µM.

(Values after patent publication US9624214B2, “Amino-substituted imidazo[1,2-a]pyridinecarboxamides and their use” (BAYER PHARMA AKTIENGESELLSCHAFT, priority 2012, dated 2017).)
